Test results as given in PMC9837035 (Nature Communications, 2023).
Values joined by “and” are separate entries in the source; they are usually repeats but may differ in a detail not shown here. Identical values can stand only once. Like-named read-outs stand apart in the source and are kept apart here.

Key:
[1] = tested on: γ-globin proteins in CD34+-derived cells; test: γ-globin protein quantification by LC-MS/MS in CD34+-derived cells; type: cell-based, human
Procedure: The extraction and digestion of proteins were performed according to the method reported in a previous paper. Briefly, collected cell pellets, 120 μL of water, 12.5 μL of acetonitrile, and 12.5 μL of 1% formic acid were mixed and sonicated. The mixture was centrifuged to remove the cell debris and the supernatant was collected. Ten microliters of supernatant was reduced by dithiothreitol, alkylated with iodoacetamide, and digested with trypsin/Lys-C mix (Promega) in 50 mM ammonium bicarbonate (pH 8.0) (Sigma) at 37 °C overnight. For protein quantification analysis by LC–MS/MS, 10 pmol of stable isotope–labeled peptides (synthesized by the Support Unit for Bio-Material Analysis, RIKEN Center for Brain Science) were added to the digested sample as an internal standard. The digested sample was stored at −25 °C until analysis. The trypsinized sample was applied to an EASY-nLC 1000 liquid chromatograph (Thermo Fisher Scientific) and Q-Exactive mass spectrometer (Thermo Fisher Scientific) equipped with a nanospray ion source (Thermo Fisher Scientific). […]
Protein quantification was performed using Vanquish UHPLC (Thermo Fisher Scientific) and TSQ-Vantage EMR (Thermo Fisher Scientific) with a HESI-II ion source (Thermo Fisher Scientific) in multiple reaction monitoring (MRM) mode. […]

EZH2 (Y641F) = EZH2 (Y641F) (Homo sapiens, UniProt Q15910, Y641F); test: Radioisotope-based methyltransferase assay (selectivity)
[2] = Parallel artificial membrane permeability assay (PAMPA); type: in vitro ADME
Procedure: Parallel artificial membrane permeability measurements were performed in duplicate with a Corning Gentest Pre-coated PAMPA Plate System according to the standard protocol of Corning Incorporated Life Sciences (Tewksbury).

NSD2 (T1150A) [3] = molecular target: T1, NSD2 (T1150A) (Homo sapiens, UniProt O96028, T1150A)
T1 sequence (O96028 whole entry T1150A): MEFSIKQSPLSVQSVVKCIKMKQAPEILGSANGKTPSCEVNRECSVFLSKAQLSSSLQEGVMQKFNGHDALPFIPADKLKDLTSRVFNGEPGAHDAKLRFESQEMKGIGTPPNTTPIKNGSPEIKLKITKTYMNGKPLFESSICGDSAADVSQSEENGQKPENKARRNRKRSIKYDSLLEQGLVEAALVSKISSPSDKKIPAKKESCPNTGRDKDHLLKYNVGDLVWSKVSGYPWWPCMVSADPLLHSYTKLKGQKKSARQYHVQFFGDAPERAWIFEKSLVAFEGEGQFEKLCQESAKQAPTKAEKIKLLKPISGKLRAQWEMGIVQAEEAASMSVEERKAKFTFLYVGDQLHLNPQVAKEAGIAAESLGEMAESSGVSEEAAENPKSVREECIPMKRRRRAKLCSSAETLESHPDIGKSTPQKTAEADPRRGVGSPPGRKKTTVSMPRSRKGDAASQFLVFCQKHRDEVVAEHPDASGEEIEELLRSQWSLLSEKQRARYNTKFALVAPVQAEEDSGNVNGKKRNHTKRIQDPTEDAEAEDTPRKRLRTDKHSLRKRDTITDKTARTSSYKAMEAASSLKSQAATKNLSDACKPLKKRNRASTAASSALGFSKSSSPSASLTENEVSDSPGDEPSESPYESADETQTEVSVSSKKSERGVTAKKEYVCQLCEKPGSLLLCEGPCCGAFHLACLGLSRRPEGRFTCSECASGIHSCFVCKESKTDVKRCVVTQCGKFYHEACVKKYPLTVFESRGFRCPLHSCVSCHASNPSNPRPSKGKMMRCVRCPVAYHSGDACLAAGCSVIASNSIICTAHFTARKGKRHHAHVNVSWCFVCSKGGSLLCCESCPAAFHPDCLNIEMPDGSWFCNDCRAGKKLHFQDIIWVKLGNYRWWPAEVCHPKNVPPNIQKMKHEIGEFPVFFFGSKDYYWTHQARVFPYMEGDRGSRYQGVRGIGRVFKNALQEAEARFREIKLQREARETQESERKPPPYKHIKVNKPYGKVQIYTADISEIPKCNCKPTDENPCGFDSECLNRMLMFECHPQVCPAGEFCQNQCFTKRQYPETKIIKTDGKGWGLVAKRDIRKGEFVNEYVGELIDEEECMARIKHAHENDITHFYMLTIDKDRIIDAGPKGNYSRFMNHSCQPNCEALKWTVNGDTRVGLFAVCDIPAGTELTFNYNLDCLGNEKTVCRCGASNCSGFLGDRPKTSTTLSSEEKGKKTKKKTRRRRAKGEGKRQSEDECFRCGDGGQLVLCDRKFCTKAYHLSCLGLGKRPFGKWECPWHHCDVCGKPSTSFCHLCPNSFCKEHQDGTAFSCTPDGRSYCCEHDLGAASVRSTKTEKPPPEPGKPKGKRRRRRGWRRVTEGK

[4] = Liver microsomal stability assay, monkey; type: in vitro ADME; settings: for Metabolic stability, % remaining of RK-701: Monkey
Procedure: [Human/Rat] Liver microsome analyses (human, rat) were performed in triplicate by the Sumika Chemical Analysis Service (SCAS) according to the standard protocols. […] [Dog/Monkey] Liver microsome analyses (dog, monkey) were performed in duplicate by RIKEN according to the same protocols as SCAS.

PRMT6 [5] = molecular target: T2, PRMT6 (Homo sapiens, UniProt Q96LA8)
T2 sequence (Q96LA8 whole entry): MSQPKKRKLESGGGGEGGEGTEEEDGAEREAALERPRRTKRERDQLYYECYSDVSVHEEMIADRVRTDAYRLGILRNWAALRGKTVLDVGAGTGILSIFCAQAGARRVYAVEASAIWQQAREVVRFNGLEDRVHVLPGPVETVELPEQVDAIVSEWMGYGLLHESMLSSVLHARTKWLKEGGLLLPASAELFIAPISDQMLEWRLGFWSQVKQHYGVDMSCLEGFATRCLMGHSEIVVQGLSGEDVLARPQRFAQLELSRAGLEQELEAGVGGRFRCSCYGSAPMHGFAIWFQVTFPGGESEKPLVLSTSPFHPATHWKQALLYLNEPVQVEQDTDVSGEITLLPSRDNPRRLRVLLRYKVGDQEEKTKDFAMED

[6] = tested on: Salmonella typhimurium TA98; test: Ames test, TA98
Procedure: The Salmonella mutagenicity assay was performed by pre-incubating the test compounds for 20 min with Salmonella typhimurium strains TA98 and TA100, with and without metabolic activation (S9 mixture).
After this time 2 mL of top agar was added to the mixture and poured on to a plate containing minimum agar. The plates were incubated at 37 °C for 49 h and the His ± revertant colonies were counted manually and automatically by a colony counter (Colony analyzer CA-11D systems, System science Co.,Ltd.). The influence of metabolic activation was tested by adding 500 μL of 10% S9 mixture. All experiments were performed in duplicate. […] DMSO served as the negative control (100 μL/plate). The mutagenic index (MI, the average number of revertants per plate divided by the average number of revertants per plate from the negative control) was also calculated for each dose. A sample was considered positive when the MI was equal to or greater than 2 for at least one of the tested doses.

SUV39H1 = molecular target: T3, SUV39H1 (Homo sapiens, UniProt O43463); test: Radioisotope-based methyltransferase assay (selectivity); type: biochemical
T3 construct: purchased Reaction Biology
T3 sequence (O43463 whole entry): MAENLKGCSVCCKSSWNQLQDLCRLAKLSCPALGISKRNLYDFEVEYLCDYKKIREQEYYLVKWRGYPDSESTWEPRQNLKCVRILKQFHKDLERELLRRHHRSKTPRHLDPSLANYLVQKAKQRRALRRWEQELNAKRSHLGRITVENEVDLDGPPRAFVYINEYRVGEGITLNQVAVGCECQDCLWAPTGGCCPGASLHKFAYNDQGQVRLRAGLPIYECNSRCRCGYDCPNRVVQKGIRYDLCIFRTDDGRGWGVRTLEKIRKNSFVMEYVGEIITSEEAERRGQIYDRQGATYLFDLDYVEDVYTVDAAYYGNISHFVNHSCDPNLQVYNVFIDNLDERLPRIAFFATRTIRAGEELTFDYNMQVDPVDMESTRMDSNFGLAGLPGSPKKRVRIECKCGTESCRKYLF

NSD2 (T1150A) [7] = molecular target: T1, NSD2 (T1150A); test: as above
DOT1L = molecular target: T4, DOT1L (Homo sapiens, UniProt Q8TEK3); test: as above; type: biochemical
T4 construct: purchased Reaction Biology
T4 sequence (Q8TEK3 whole entry): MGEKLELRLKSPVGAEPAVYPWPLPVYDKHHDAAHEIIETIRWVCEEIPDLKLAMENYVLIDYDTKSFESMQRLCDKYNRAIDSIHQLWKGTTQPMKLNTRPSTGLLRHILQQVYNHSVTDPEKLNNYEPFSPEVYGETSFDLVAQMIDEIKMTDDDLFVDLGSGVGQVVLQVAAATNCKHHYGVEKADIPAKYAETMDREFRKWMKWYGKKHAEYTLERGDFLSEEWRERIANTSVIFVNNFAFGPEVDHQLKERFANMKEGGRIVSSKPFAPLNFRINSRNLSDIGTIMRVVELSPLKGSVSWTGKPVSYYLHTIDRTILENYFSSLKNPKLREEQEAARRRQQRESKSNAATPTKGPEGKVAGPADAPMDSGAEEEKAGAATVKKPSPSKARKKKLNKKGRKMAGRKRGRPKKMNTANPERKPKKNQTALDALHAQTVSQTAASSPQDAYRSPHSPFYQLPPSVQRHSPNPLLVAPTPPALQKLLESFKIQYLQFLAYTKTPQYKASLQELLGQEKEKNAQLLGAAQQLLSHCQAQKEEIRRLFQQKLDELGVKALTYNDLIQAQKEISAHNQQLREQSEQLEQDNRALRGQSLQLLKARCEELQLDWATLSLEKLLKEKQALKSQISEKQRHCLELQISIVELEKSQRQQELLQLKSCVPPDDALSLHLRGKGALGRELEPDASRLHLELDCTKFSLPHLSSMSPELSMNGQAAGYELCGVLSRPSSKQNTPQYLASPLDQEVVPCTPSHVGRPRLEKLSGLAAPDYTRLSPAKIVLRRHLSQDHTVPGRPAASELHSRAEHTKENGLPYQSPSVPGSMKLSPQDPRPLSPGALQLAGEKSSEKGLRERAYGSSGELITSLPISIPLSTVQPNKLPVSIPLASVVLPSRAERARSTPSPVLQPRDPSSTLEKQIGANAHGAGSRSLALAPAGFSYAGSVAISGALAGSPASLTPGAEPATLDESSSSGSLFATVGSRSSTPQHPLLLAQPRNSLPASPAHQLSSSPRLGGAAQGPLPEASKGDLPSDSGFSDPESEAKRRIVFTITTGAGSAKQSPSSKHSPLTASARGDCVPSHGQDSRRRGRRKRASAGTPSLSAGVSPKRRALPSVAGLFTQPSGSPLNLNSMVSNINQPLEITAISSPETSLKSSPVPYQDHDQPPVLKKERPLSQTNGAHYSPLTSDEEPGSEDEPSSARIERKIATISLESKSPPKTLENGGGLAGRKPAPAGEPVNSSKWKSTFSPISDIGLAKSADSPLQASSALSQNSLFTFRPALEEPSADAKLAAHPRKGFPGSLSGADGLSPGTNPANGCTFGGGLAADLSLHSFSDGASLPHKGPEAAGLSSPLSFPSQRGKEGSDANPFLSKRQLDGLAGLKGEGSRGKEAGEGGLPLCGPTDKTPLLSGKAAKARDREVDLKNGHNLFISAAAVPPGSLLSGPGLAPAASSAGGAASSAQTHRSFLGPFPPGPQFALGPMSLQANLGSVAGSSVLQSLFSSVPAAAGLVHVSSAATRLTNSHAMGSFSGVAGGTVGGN

PRMT6 [8] = molecular target: T2, PRMT6; test: biochemical

NC(=O)NO [Hydroxyurea, hydroxyurea]
Percentage of γ-globin proteins relative to total β-like globin proteins ([1]; day 11, 10 μM): 8.1% and 10.3%
Percentage of γ-globin proteins relative to total β-like globin proteins ([1]; day 11, 50 μM): 8.1% and 10.3% and 14.3%

Cc1c(C(=O)NC(CCC2CC2)C(=O)Nc2ccc(C#N)cc2)[nH]c2c1C(=O)CC(C)(C)C2 (centres unmarked) [RK-701]
IC50 (EZH2 (Y641F)): > 100 µM
cell permeability (PAMPA and Caco-2) [2]: decent cell permeability
Papp ([2]; PAMPA): 3.08 ± 1.47 ×10⁻⁶ cm/s
PAMPA ([2]; replicate values): 2.736e-6 and 5.393e-6 and 2.8861e-6 and 1.3122e-6
IC50 (NSD2 (T1150A) [3]): > 100 µM
Metabolic stability, % remaining of RK-701 ([4]; Time 5, replicate values): 117%
Metabolic stability, % remaining of RK-701 ([4]; Time 10, replicate values): 94.6%
Metabolic stability, % remaining of RK-701 ([4]; Time 20, replicate values): 60%
Metabolic stability, % remaining of RK-701 ([4]; Time 30, replicate values): 44.3%
Metabolic stability, % remaining of RK-701 ([4]; Time 45, replicate values): 26%
Metabolic stability, % remaining of RK-701 ([4]; Time 60, replicate values): 19.4%
remaining at 5 min, 1 µM ([4]; monkey, liver microsomes, Metabolic stability, % remaining of RK-701, Monkey, Time 5, replicate values): 106%
remaining at 10 min, 1 µM ([4]; monkey, liver microsomes, Metabolic stability, % remaining of RK-701, Monkey, Time 10, replicate values): 85.8%
remaining at 20 min, 1 µM ([4]; monkey, liver microsomes, Metabolic stability, % remaining of RK-701, Monkey, Time 20, replicate values): 57.4%
remaining at 30 min, 1 µM ([4]; monkey, liver microsomes, Metabolic stability, % remaining of RK-701, Monkey, Time 30, replicate values): 42.4%
remaining at 45 min, 1 µM ([4]; monkey, liver microsomes, Metabolic stability, % remaining of RK-701, Monkey, Time 45, replicate values): 24.2%
remaining at 60 min, 1 µM ([4]; monkey, liver microsomes, Metabolic stability, % remaining of RK-701, Monkey, Time 60, replicate values): 16.8%
microsomal CLint at 1 μM ([4]; monkey, liver microsomes, read-out: Metabolic stability in liver microsomes CLint): 67 µL/min/mg
IC50 (PRMT6 [5]): > 100 µM
Number of reverants/plate ([6]; TA98, + S9, frameshift mutation, 4.88 μg/plate): 28
Number of reverants/plate ([6]; TA98, + S9, frameshift mutation, 19.5 μg/plate): 29 and 28
Number of reverants/plate ([6]; TA98, + S9, frameshift mutation, 78.1 μg/plate): 31 and 30
Number of reverants/plate ([6]; TA98, + S9, frameshift mutation, 313 μg/plate): 28
Number of reverants/plate ([6]; TA98, + S9, frameshift mutation, 1250* μg/plate): 32 and 28
Number of reverants/plate ([6]; TA98, + S9, frameshift mutation, 2500* μg/plate): 28
Number of reverants/plate ([6]; TA98, + S9, frameshift mutation, 5000* μg/plate): 28 and 23
Number of revertants/plate ([6]; TA98, +S9, 4.88 μg/plate): 28
Number of revertants/plate ([6]; TA98, +S9, 19.5 μg/plate): 29
Number of revertants/plate ([6]; TA98, +S9, 78.1 μg/plate): 31
Number of revertants/plate ([6]; TA98, +S9, 313 μg/plate): 28
Number of revertants/plate ([6]; TA98, +S9, 1250 μg/plate, insoluble material): 30
Number of revertants/plate ([6]; TA98, +S9, 2500 μg/plate, insoluble material): 28
Number of revertants/plate ([6]; TA98, +S9, 5000 μg/plate, insoluble material): 26
Number of reverants/plate ([6]; TA98, - S9, frameshift mutation, 4.88 μg/plate): 13 and 20
Number of reverants/plate ([6]; TA98, - S9, frameshift mutation, 19.5 μg/plate): 12 and 13
Number of reverants/plate ([6]; TA98, - S9, frameshift mutation, 78.1 μg/plate): 14 and 20
Number of reverants/plate ([6]; TA98, - S9, frameshift mutation, 313 μg/plate): 14 and 12
Number of reverants/plate ([6]; TA98, - S9, frameshift mutation, 1250* μg/plate): 11 and 12
Number of reverants/plate ([6]; TA98, - S9, frameshift mutation, 2500* μg/plate): 11 and 12
Number of reverants/plate ([6]; TA98, - S9, frameshift mutation, 5000* μg/plate): 13 and 16
Number of revertants/plate ([6]; TA98, -S9, 4.88 μg/plate): 17
Number of revertants/plate ([6]; TA98, -S9, 19.5 μg/plate): 13
Number of revertants/plate ([6]; TA98, -S9, 78.1 μg/plate): 17
Number of revertants/plate ([6]; TA98, -S9, 313 μg/plate): 13
Number of revertants/plate ([6]; TA98, -S9, 1250 μg/plate, insoluble material): 12
Number of revertants/plate ([6]; TA98, -S9, 2500 μg/plate, insoluble material): 12
Number of revertants/plate ([6]; TA98, -S9, 5000 μg/plate, insoluble material): 15
mutagenicity ([6]; TA98, regardless of metabolic activation): no mutagenicity
IC50 (SUV39H1; SUV39H1, 1 μM SAM): > 100 µM
IC50 (SUV39H1; SUV39H1, RK-701 in duplicate): > 100 µM
IC50 (NSD2 (T1150A) [7]): > 100 µM
IC50 (DOT1L; 1 μM SAM): > 100 µM
IC50 (DOT1L; RK-701 in duplicate): > 100 µM

Nc1ncnc2c1ncn2[C@@H]1O[C@H](CSCC[C@H](N)C(=O)O)[C@@H](O)[C@H]1O [SAH, S-(5'-Adenosyl)-L-homocysteine, reference compound]
IC50 (PRMT6 [8]): 0.408 µM
